Laboratory results published in PMC5218480 (PLoS ONE, 2017).

Test system: MV-4-11 cells
Assay: Gene expression microarray analysis (Affymetrix PrimeView) and GSEA
Format: cell-based, human
Set-up: RFU PODN (11730768_x_at) / Fold change /veh PODN (11730768_x_at) / RFU LINC00158 (11744669_a_at) / Fold change /veh LINC00158 (11744669_a_at) / RFU DUSP10 (11751237_a_at) / Fold change /veh DUSP10 (11751237_a_at) / RFU ID3 (11757404_x_at) / Fold change /veh ID3 (11757404_x_at) / RFU PLEKHG5 (11737974_s_at) / Fold change /veh PLEKHG5 (11737974_s_at) / RFU LRRC4B (11730491_at) / Fold change /veh LRRC4B (11730491_at) / RFU GIMAP4 (11747438_a_at) / Fold change /veh GIMAP4 (11747438_a_at) / RFU KRT8 (11758183_x_at) / Fold change /veh KRT8 (11758183_x_at) / RFU CNN1 (11734310_a_at) / Fold change /veh CNN1 (11734310_a_at) / RFU VPS37D (11726825_at) / Fold change /veh VPS37D (11726825_at) / RFU C10orf10 (11716522_x_at) / Fold change /veh C10orf10 (11716522_x_at) / RFU KIR2DL2 /// KIR2DL4 /// KIR2DL5A /// KIR2DL5B /// KIR2DS1 /// KIR2DS2 /// KIR2DS3 /// KIR2DS4 /// KIR3DL3 /// KIR3DL3 /// KIR3DS1 (11738374_at) / Fold change /veh KIR2DL2 /// KIR2DL4 /// KIR2DL5A /// KIR2DL5B /// KIR2DS1 /// KIR2DS2 /// KIR2DS3 /// KIR2DS4 /// KIR3DL3 /// KIR3DL3 /// KIR3DS1 (11738374_at) / RFU C1QL1 (11718748_at) / Fold change /veh C1QL1 (11718748_at) / RFU TMPRSS4 (11747572_a_at) / Fold change /veh TMPRSS4 (11747572_a_at) / RFU HAMP (11756126_x_at) / Fold change /veh HAMP (11756126_x_at) / RFU RNFT2 (11725882_a_at) / Fold change /veh RNFT2 (11725882_a_at) / RFU NR4A2 (11747474_a_at) / Fold change /veh NR4A2 (11747474_a_at) / RFU ABCC12 (11746883_a_at) / Fold change /veh ABCC12 (11746883_a_at) / RFU TMEM136 (11760407_x_at) / Fold change /veh TMEM136 (11760407_x_at) / RFU CLDN22 /// WWC2 (11732394_at) / Fold change /veh CLDN22 /// WWC2 (11732394_at) / RFU HLA-DPB1 (11760878_x_at) / Fold change /veh HLA-DPB1 (11760878_x_at) / RFU SPINT1 (11716480_a_at) / Fold change /veh SPINT1 (11716480_a_at) / RFU GAP43 (11754022_s_at) / Fold change /veh GAP43 (11754022_s_at) / RFU A4GNT (11735810_at) / Fold change /veh A4GNT (11735810_at) / RFU PRB3 (11715151_x_at) / Fold change /veh PRB3 (11715151_x_at) / RFU TUBB4B (11761932_at) / Fold change /veh TUBB4B (11761932_at) / RFU CAPN14 (11732068_a_at) / Fold change /veh CAPN14 (11732068_a_at) / RFU TMCC2 (11721928_a_at) / Fold change /veh TMCC2 (11721928_a_at) / RFU IRGQ (11745062_a_at) / Fold change /veh IRGQ (11745062_a_at) / RFU FAM174B (11720279_a_at) / Fold change /veh FAM174B (11720279_a_at) / RFU TMPRSS4 (11748680_a_at) / Fold change /veh TMPRSS4 (11748680_a_at) / RFU FAM212B (11763350_a_at) / Fold change /veh FAM212B (11763350_a_at) / RFU PLEKHG5 (11743358_a_at) / Fold change /veh PLEKHG5 (11743358_a_at) / RFU ZSCAN30 (11745921_a_at) / Fold change /veh ZSCAN30 (11745921_a_at) / RFU CMKLR1 (11741424_a_at) / Fold change /veh CMKLR1 (11741424_a_at) / RFU LOC101060620 /// MAPK8IP1 (11723275_at) / Fold change /veh LOC101060620 /// MAPK8IP1 (11723275_at) / RFU SPTSSB (11747773_x_at) / Fold change /veh SPTSSB (11747773_x_at) / RFU PRSS12 (11739890_at) / Fold change /veh PRSS12 (11739890_at) / RFU BIN1 (11741810_x_at) / Fold change /veh BIN1 (11741810_x_at) / RFU WNT11 (11732464_a_at) / Fold change /veh WNT11 (11732464_a_at) / RFU C10orf10 (11716521_a_at) / Fold change /veh C10orf10 (11716521_a_at) / RFU C5orf56 (11738089_at) / Fold change /veh C5orf56 (11738089_at) / RFU CYB561 (11721691_x_at) / Fold change /veh CYB561 (11721691_x_at) / RFU ANKRD19P (11752326_a_at) / Fold change /veh ANKRD19P (11752326_a_at) / RFU OR2T12 /// OR2T33 /// OR2T8 (11738714_s_at) / Fold change /veh OR2T12 /// OR2T33 /// OR2T8 (11738714_s_at) / RFU VCAN (11748164_a_at) / Fold change /veh VCAN (11748164_a_at) / RFU JSRP1 (11732532_at) / Fold change /veh JSRP1 (11732532_at) / RFU KRTAP10-11 (11738290_x_at) / Fold change /veh KRTAP10-11 (11738290_x_at) / RFU MYO3A (11730013_a_at) / Fold change /veh MYO3A (11730013_a_at) / RFU EBF3 (11725865_a_at) / Fold change /veh EBF3 (11725865_a_at) / RFU CAMK2N1 (11719241_x_at) / Fold change /veh CAMK2N1 (11719241_x_at) / RFU C5orf56 (11738088_a_at) / Fold change /veh C5orf56 (11738088_a_at) / RFU OLFML3 (11715873_a_at) / Fold change /veh OLFML3 (11715873_a_at) / RFU LOC100653217 /// NTM (11731650_a_at) / Fold change /veh LOC100653217 /// NTM (11731650_a_at) / RFU MAPK11 (11762145_a_at) / Fold change /veh MAPK11 (11762145_a_at) / RFU FIZ1 (11724087_x_at) / Fold change /veh FIZ1 (11724087_x_at) / RFU OASL (11726364_x_at) / Fold change /veh OASL (11726364_x_at) / RFU SOX15 (11748057_x_at) / Fold change /veh SOX15 (11748057_x_at) / RFU CD79A (11719716_a_at) / Fold change /veh CD79A (11719716_a_at) / RFU HIST1H1D (11736915_at) / Fold change /veh HIST1H1D (11736915_at) / RFU CASKIN2 (11723855_a_at) / Fold change /veh CASKIN2 (11723855_a_at) / RFU LOC730098 (11760151_x_at) / Fold change /veh LOC730098 (11760151_x_at) / RFU OR4N2 (11742367_at) / Fold change /veh OR4N2 (11742367_at) / RFU PRRT2 (11749266_a_at) / Fold change /veh PRRT2 (11749266_a_at) / RFU SNX32 (11753110_a_at) / Fold change /veh SNX32 (11753110_a_at) / RFU CDHR5 (11726645_a_at) / Fold change /veh CDHR5 (11726645_a_at) / RFU RCAN1 (11760418_a_at) / Fold change /veh RCAN1 (11760418_a_at) / RFU FAM167A (11723789_a_at) / Fold change /veh FAM167A (11723789_a_at) / RFU FAM26E (11764081_at) / Fold change /veh FAM26E (11764081_at) / RFU ISYNA1 (11749810_s_at) / Fold change /veh ISYNA1 (11749810_s_at) / RFU ACY1 (11761880_at) / Fold change /veh ACY1 (11761880_at) / RFU 11764098_at / Fold change /veh 11764098_at / RFU SAMD14 (11745864_x_at) / Fold change /veh SAMD14 (11745864_x_at) / RFU NPB (11741838_a_at) / Fold change /veh NPB (11741838_a_at) / RFU TMPRSS6 (11731388_a_at) / Fold change /veh TMPRSS6 (11731388_a_at) / RFU KRTAP10-2 (11738614_at) / Fold change /veh KRTAP10-2 (11738614_at) / RFU ARHGAP8 /// PRR5-ARHGAP8 (11727945_x_at) / Fold change /veh ARHGAP8 /// PRR5-ARHGAP8 (11727945_x_at) / RFU KRTAP5-7 /// NADSYN1 (11734609_at) / Fold change /veh KRTAP5-7 /// NADSYN1 (11734609_at) / RFU RASL12 (11751679_a_at) / Fold change /veh RASL12 (11751679_a_at) / RFU CDKN2B (11736163_a_at) / Fold change /veh CDKN2B (11736163_a_at) / RFU PRF1 (11729649_at) / Fold change /veh PRF1 (11729649_at) / RFU, ZNF638 /// ZNF638-IT1 / Fold change vs veh, ZNF638 /// ZNF638-IT1 / RFU, PANK3 / Fold change vs veh, PANK3 / RFU, SH3YL1 / Fold change vs veh, SH3YL1 / RFU, ZEB2 / Fold change vs veh, ZEB2 / RFU, NRIP1 / Fold change vs veh, NRIP1 / RFU, PTTG1IP / Fold change vs veh, PTTG1IP / RFU, CAPN2 / Fold change vs veh, CAPN2 / RFU, MED14 / Fold change vs veh, MED14 / RFU, SNORA58 / Fold change vs veh, SNORA58 / RFU, C1orf63 / Fold change vs veh, C1orf63 / RFU, LRRFIP1 / Fold change vs veh, LRRFIP1 / RFU, NDUFAF7 / Fold change vs veh, NDUFAF7 / RFU, SLC12A2 / Fold change vs veh, SLC12A2 / RFU, IBTK / Fold change vs veh, IBTK / RFU, ESF1 / Fold change vs veh, ESF1 / Fold change vs veh, TMEM50B / RFU, TAOK1 / Fold change vs veh, TAOK1 / RFU, ACBD3 / Fold change vs veh, ACBD3 / RFU, TMA16 / Fold change vs veh, TMA16 / RFU, RWDD3 / Fold change vs veh, RWDD3 / RFU, BCAT1 / Fold change vs veh, BCAT1 / RFU, EDEM3 / Fold change vs veh, EDEM3 / RFU, TMEM33 / Fold change vs veh, TMEM33 / RFU, WDR75 / Fold change vs veh, WDR75 / RFU, AHCTF1 / Fold change vs veh, AHCTF1 / RFU, TFRC / Fold change vs veh, TFRC / RFU, ZDHHC17 / Fold change vs veh, ZDHHC17 / RFU, NOM1 / Fold change vs veh, NOM1 / RFU, ARL8B / Fold change vs veh, ARL8B / RFU, ZBTB11 / Fold change vs veh, ZBTB11 / RFU, TAMM41 / Fold change vs veh, TAMM41 / RFU, KIAA1704 /// LOC100996395 / Fold change vs veh, KIAA1704 /// LOC100996395 / RFU, ING1 / Fold change vs veh, ING1 / RFU, TRMT61B / Fold change vs veh, TRMT61B / RFU, FUBP3 / Fold change vs veh, FUBP3 / RFU, TP53 / Fold change vs veh, TP53 / RFU, TNKS2 / Fold change vs veh, TNKS2 / RFU, ZFP14 / Fold change vs veh, ZFP14 / RFU, ACTR2 / Fold change vs veh, ACTR2 / RFU, PPP3R1 / Fold change vs veh, PPP3R1 / RFU, PIK3R1 / Fold change vs veh, PIK3R1 / RFU, HNRNPA1 / Fold change vs veh, HNRNPA1 / RFU, RNF170 / Fold change vs veh, RNF170 / RFU, ZNF28 / Fold change vs veh, ZNF28 / RFU, RNGTT / Fold change vs veh, RNGTT / RFU, OGT / Fold change vs veh, OGT / RFU, BRD1 / Fold change vs veh, BRD1 / RFU, MARS / Fold change vs veh, MARS / RFU, ZNF655 / Fold change vs veh, ZNF655 / RFU, FAHD1 / Fold change vs veh, FAHD1 / RFU, BDP1 / Fold change vs veh, BDP1 / RFU, LRRCC1 / Fold change vs veh, LRRCC1 / RFU, ARID1A / Fold change vs veh, ARID1A / RFU, ZNF146 / Fold change vs veh, ZNF146 / RFU, ZNF330 / Fold change vs veh, ZNF330 / RFU, GPN3 / Fold change vs veh, GPN3 / RFU, C9orf123 / Fold change vs veh, C9orf123 / RFU, N4BP2L2 / Fold change vs veh, N4BP2L2 / RFU, ARFIP1 / Fold change vs veh, ARFIP1 / RFU, FAM179B / Fold change vs veh, FAM179B / RFU, BCL10 / Fold change vs veh, BCL10 / RFU, UHRF1BP1L / Fold change vs veh, UHRF1BP1L / RFU, BET1 / Fold change vs veh, BET1 / RFU, CNOT2 / Fold change vs veh, CNOT2 / RFU, ZNF268 / Fold change vs veh, ZNF268 / Fold change vs veh, ZNF507 / RFU, DGCR2 / Fold change vs veh, DGCR2 / RFU, WDSUB1 / Fold change vs veh, WDSUB1 / Fold change vs veh, HSP90B1 /// MIR3652 / RFU, ADSS / Fold change vs veh, ADSS / RFU, GK / Fold change vs veh, GK / RFU, ZNF148 / Fold change vs veh, ZNF148 / RFU, TAF9 / Fold change vs veh, TAF9 / RFU, SLC1A5 / Fold change vs veh, SLC1A5 / RFU, SLMO2 / Fold change vs veh, SLMO2 / RFU, ABCC4 / Fold change vs veh, ABCC4 / RFU, LOC101060439 /// RAP1B / Fold change vs veh, LOC101060439 /// RAP1B / RFU, RFX7 / Fold change vs veh, RFX7 / RFU, GTPBP10 / Fold change vs veh, GTPBP10 / RFU, CNEP1R1 / Fold change vs veh, CNEP1R1 / RFU, BIVM-ERCC5 /// ERCC5 / Fold change vs veh, BIVM-ERCC5 /// ERCC5 / RFU, ILF3 / Fold change vs veh, ILF3 / RFU 11762660_at / Fold change /veh 11762660_at / RFU VCAN (11757783_s_at) / Fold change /veh VCAN (11757783_s_at) / RFU DDX43 (11728927_at) / Fold change /veh DDX43 (11728927_at) / RFU KRT8 (11758188_x_at) / Fold change /veh KRT8 (11758188_x_at) / RFU NKD1 (11759106_at) / Fold change /veh NKD1 (11759106_at) / RFU SRD5A1 (11742802_a_at) / Fold change /veh SRD5A1 (11742802_a_at) / RFU TPSAB1 /// TPSB2 (11721975_s_at) / Fold change /veh TPSAB1 /// TPSB2 (11721975_s_at) / RFU GSTM3 (11746129_a_at) / Fold change /veh GSTM3 (11746129_a_at) / RFU IL23R (11737362_x_at) / Fold change /veh IL23R (11737362_x_at) / RFU TMEM51 (11727254_a_at) / Fold change /veh TMEM51 (11727254_a_at) / RFU PIWIL2 (11732686_x_at) / Fold change /veh PIWIL2 (11732686_x_at) / RFU ORM1 (11744905_x_at) / Fold change /veh ORM1 (11744905_x_at) / RFU CCDC152 (11743942_at) / Fold change /veh CCDC152 (11743942_at) / RFU ECM1 (11717891_a_at) / Fold change /veh ECM1 (11717891_a_at) / RFU IL23R (11748794_a_at) / Fold change /veh IL23R (11748794_a_at) / RFU TNFAIP8L3 (11732012_x_at) / Fold change /veh TNFAIP8L3 (11732012_x_at) / RFU MBOAT4 (11741988_at) / Fold change /veh MBOAT4 (11741988_at) / RFU 11764193_at / Fold change /veh 11764193_at / RFU TMEM53 (11763286_at) / Fold change /veh TMEM53 (11763286_at) / RFU MAGEB2 (11727129_at) / Fold change /veh MAGEB2 (11727129_at) / RFU TMEM200A (11744735_a_at) / Fold change /veh TMEM200A (11744735_a_at) / RFU CCDC152 (11751479_a_at) / Fold change /veh CCDC152 (11751479_a_at) / RFU FAM211A (11726209_a_at) / Fold change /veh FAM211A (11726209_a_at) / RFU RGS16 (11746705_a_at) / Fold change /veh RGS16 (11746705_a_at) / RFU VCAN (11755009_s_at) / Fold change /veh VCAN (11755009_s_at) / RFU RHOB (11743442_s_at) / Fold change /veh RHOB (11743442_s_at) / RFU RGS16 (11720943_a_at) / Fold change /veh RGS16 (11720943_a_at) / RFU RGS16 (11720944_at) / Fold change /veh RGS16 (11720944_at) / RFU, VPS4B / Fold change vs veh, VPS4B / RFU, CREB1 / Fold change vs veh, CREB1 / RFU, DNAJC13 / Fold change vs veh, DNAJC13 / RFU, GNAQ / Fold change vs veh, GNAQ / RFU, CDK5R1 / Fold change vs veh, CDK5R1 / RFU, ZRANB3 / Fold change vs veh, ZRANB3 / RFU, CUL4A / Fold change vs veh, CUL4A / RFU, CCNY / Fold change vs veh, CCNY / RFU, UFL1 / Fold change vs veh, UFL1 / RFU, COG3 / Fold change vs veh, COG3 / RFU, DIAPH2 / Fold change vs veh, DIAPH2 / RFU, SKA2 / Fold change vs veh, SKA2 / RFU, AFF3 / Fold change vs veh, AFF3 / RFU, LMF1 / Fold change vs veh, LMF1 / RFU, IPO11 / Fold change vs veh, IPO11 / RFU, DFFB / Fold change vs veh, DFFB / RFU, FOXP1 / Fold change vs veh, FOXP1 / RFU, CARD8 / Fold change vs veh, CARD8 / RFU, STRN3 / Fold change vs veh, STRN3 / RFU, ADK / Fold change vs veh, ADK / RFU, RASSF2 / Fold change vs veh, RASSF2 / RFU, WIPF1 / Fold change vs veh, WIPF1 / RFU, LARP1B / Fold change vs veh, LARP1B / RFU, RASA1 / Fold change vs veh, RASA1 / RFU, RB1 / Fold change vs veh, RB1 / RFU, PPFIA1 / Fold change vs veh, PPFIA1 / RFU, MAT2A / Fold change vs veh, MAT2A / RFU, CCT5 / Fold change vs veh, CCT5 / RFU, WDR92 / Fold change vs veh, WDR92 / RFU, CUX1 / Fold change vs veh, CUX1 / RFU, TTC7A / Fold change vs veh, TTC7A / RFU, TMEM135 / Fold change vs veh, TMEM135 / RFU, DEPTOR / Fold change vs veh, DEPTOR / RFU, CPM / Fold change vs veh, CPM / RFU, DNAJB6 / Fold change vs veh, DNAJB6 / RFU, CACNA2D3 / Fold change vs veh, CACNA2D3 / RFU, DTX4 / Fold change vs veh, DTX4 / RFU, TFCP2 / Fold change vs veh, TFCP2 / RFU, GMCL1 /// GMCL1P1 / Fold change vs veh, GMCL1 /// GMCL1P1 / RFU, AEBP2 / Fold change vs veh, AEBP2 / RFU, SNHG1 /// SNORD22 /// SNORD25 /// SNORD26 /// SNORD27 /// SNORD28 /// SNORD29 /// SNORD31 / Fold change vs veh, SNHG1 /// SNORD22 /// SNORD25 /// SNORD26 /// SNORD27 /// SNORD28 /// SNORD29 /// SNORD31 / Fold change (Aza/veh), C12orf56 (ProbeSet 11735607_a_at) / Fold change (ACY-1035/veh), C12orf56 (ProbeSet 11735607_a_at) / Fold change (Aza/veh), FGFR1OP (ProbeSet 11751329_s_at) / Fold change (ACY-1035/veh), FGFR1OP (ProbeSet 11751329_s_at) / Fold change (Aza/veh), VPS36 (ProbeSet 11739960_a_at) / Fold change (ACY-1035/veh), VPS36 (ProbeSet 11739960_a_at) / RFU SYPL1 (11715823_x_at) / Fold change /veh SYPL1 (11715823_x_at) / RFU IGFBP7 (11715501_s_at) / Fold change /veh IGFBP7 (11715501_s_at) / RFU REEP3 (11722064_at) / Fold change /veh REEP3 (11722064_at) / RFU IGLL1 (11728026_x_at) / Fold change /veh IGLL1 (11728026_x_at): dose or concentration left out as unconfirmed
Conditions: MV-4-11 cells, 48 hours

SMILES: Nc1ccc(-c2cccs2)cc1NC(=O)c1ccc2c(c1)cc(C1CC1)n2CCN1CCOCC1 [ACY-1035]
- RFU TMEM200A (11744735_a_at): 5.05 RFU
